# Reference: patent publication US4956355A, “Agents for the arrest and therapy of retroviral infections” (Colthurst Limited, priority 1987, dated 1990)
# Columns and labels:
# [1] = tested on: HIV in VB T lymphoma cell line; assay: Inhibition of HIV mediated cytopathic effects (multinucleated giant/syncytial cell formation) in acutely infected VB tumor cell line; assay type: cell-based
# Method: (§1) 1. […] All three viral strains were grown in the Tissue Culture Laboratory of the AIDS Activity Division of San Francisco General Hospital where titers of […] infectious units per ml were routinely achieved.
# (§2) 2. Source of cells: The VB cell line used in Example 1 is a T lymphoma cell line that is highly susceptible to infection with HIV, and expresses high levels of cell surface CD4 molecules. This cell line forms syncytia within two days after infection with all strains of HIV tested to date. […] This is used to quantitate infection in the absence of syncytial formation, infection being quantitated by immunofluorescence assays. The HXB/H9 cell line (Example 6) is an H9 cell population that chronically produces the HTLV-IIIB strain of HIV and is utilised in experiments testing antiviral effects on chronically infected cell lines. Human macrophages were prepared from peripheral blood mononuclear cells either obtained from the blood bank as a buffy coat, or as a leukophoresis preparation. Crowe et al. supra have devised an assay system that allows quantitation of HIV infection, and inhibition of infection using immunocytofluorographic analysis. In order to quantitate HIV infection in macrophages, they grow macrophages in Teflon (Trade Mark) culture vessels which maintain macrophages in suspension in vitro culture for up to six months. Cell surface and cytoplasmic immunofluorescence staining is then performed to quantitate antigens in macrophages by flow cytometry.
# 5. Inhibition of acute infection: Several assays were utilized to test for inhibition of acute infection; these included:
# (a) Inhibition of multinucleated giant cell formation in acutely infected VB cells infected at a multiplicity of infection of 1, and scored two days after infection in the presence or absence of varying concentrations of drug, for the formation of multinucleated giant cells. (free virus is washed out after a one hour incubation pretreatment at room temperature). […] Supernatants were also isolated and the level of HIV p24 antigen determined. Infectious virus was measured in treated cultures by performing a syncytial assay as described above.
# (§3) Compounds A and B were tested for inhibition of T lymphoma cell cytopathic effect at various drug concentrations after acute infection with HIV for 48 hours. […] It is possible that the diminished effects noted in later experiments could have been secondary to drug stability problems.
# [2] = tested on: HIV in activated peripheral blood lymphocytes; assay: Inhibition of HIV mediated cytopathic effects / p24 antigen production in activated peripheral blood lymphocytes; assay type: cell-based; details: for p24 antigen production: activated PBL, about 7 days after infection, FIG. 2
# Method: as §1
# (§4) 4. HIV soluble p24 antigen detection: Soluble p24 antigens were measured with the Abbott HIV antigen detection system.
# (b) Although the VB T lymphoma cell line behaves in a similar manner to peripheral blood CD4 positive T lymphocytes in regard to HIV induced cytopathic effects, the above described experiments were performed on phytohemagglutinin (PHA) activated lymphocytes to determine whether lymphocytes are more or less sensitive to Compounds A and B than is the VB cell line. In this assay system, at the time that multinucleated giant cells appeared within infected lymphocyte cultures, the supernatants were analyzed for the presence of HIV p24 antigens and were titered on indicator VB lymphoma cells to determine the titer of infectious virus present at each point.
# To test whether the effects of compounds A and B on acute VB T lymphoma infection would be mimicked by activated peripheral blood lymphocytes (PBC), HIV at a multiplicity of infection of one was added to lymphocytes that had been activated for 48 hours with 2 μg per ml of PHA. After the initial infection for one hour, the activated lymphocytes were washed and resuspended for the one week of culture. Multinucleated giant cells began to form approximately 7 days after the initial infection, at which time the culture supernatants were harvested and tested for the presence of HIV p24 antigens. The accumulation of HIV p24 antigens in the supernatant is representative of production of HIV from infected cells.
# HIV in human macrophages [3] = assay: Inhibition of HIV production in normal human macrophages (supernatant p24, acute infection); assay type: cell-based
# Method: as §1, §2, §4
# (c) To test whether Compounds A and B were effective at blocking acute infection of macrophages, macrophages from Teflon cultures were exposed at a multiplicity of 1 to HIV-DV in the presence or absence of various concentrations of drug (Examples 3-5). Normally, HIV expression peaks in human macrophages at approximately ten days after initial infection. Therefore, after infection for one hour at room temperature, followed by a wash and resuspension of the macrophages in various drug concentrations, macrophages were stained for the presence of p24 antigen at day ten. Culture supernatants from these macrophages were assayed for the presence of soluble p24, and infectious virus as described above.
# To test whether compounds A and B might be active at inhibiting infection of normal human macrophages, a spectrum of drug concentrations were tested for inhibition of acute infection, and inhibition of HIV expression in chronically infected macrophages. […] After acute infection (one hour) cells were incubated in various concentrations of compounds A and B, and 7 days after the initial infection supernatants were harvested for p24 antigen quantitation. […]
# HIV in human macrophages [4] = assay: Inhibition of cytoplasmic HIV p24 antigen in HIV-infected macrophages; assay type: cell-based; details: 10^-4 molar; three donors; FIG. 4
# Method: as §1, §2
# 3. Flow cytometry: An Ortho Cytofluorgraf II-S (Trade Mark) that has a biohazard containment flow cell was used for analysis of HIV infected samples. HIV p24 antigens were detected utilizing a mouse monoclonal anti-p24 (du Pont), and mouse antibodies were identified utilizing an FITC conjugated goat anti-mouse IgG. […]
# The cells from the experiment described in Example 3 were analysed, and the cytoplasm was analysed for the presence of HIV p24 to directly test whether HIV p24 antigen production was inhibited within those infected cells. […]
# HIV in HXB/H9 cell line = assay: Antiviral testing of chronically HIV infected cell line HXB; assay type: cell-based; details: other than killing with compound B at 10^-4 molar
# Method: as §1
# as §2, with “Human macrophages were prepared from peripheral blood mononuclear cells either obtained from the blood bank as a buffy coat, or as a leukophoresis preparation.” left out, “cytometry. […]” for “cytometry.”
# [5] = tested on: HIV in chronically infected human macrophages; assay: Antiviral testing of chronically HIV infected macrophages; assay type: cell-based
# Text: as §2
# 3. Flow cytometry: An Ortho Cytofluorgraf II-S (Trade Mark) that has a biohazard containment flow cell was used for analysis of HIV infected samples. HIV p24 antigens were detected utilizing a mouse monoclonal anti-p24 (du Pont), and mouse antibodies were identified utilizing an FITC conjugated goat anti-mouse IgG.
# 6. Analysis of chronically infected cells: To determine whether compounds A and B are effective at inhibiting HIV expression in macrophages and chronically infected T cells, the following experiments were performed. The chronically infected T cell line, HXB/H9 was exposed to various concentrations of drug for four days in vitro. At four days, the HXB cells were assayed for the presence of p24 intracytoplasmically, and supernatants were assayed for the presence of infectious virus as described above.
# Because macrophages can be infected and produce HIV for very long periods of time without substantial loss of viability, chronically infected cells were tested, specifically a population that was between 30 and 50% HIV antigen positive, for inhibition of cytoplasmic HIV p24 antigen production. FIG. 5 indicates the results of three separate experiments carried out.
# VB T lymphoma cell line = assay: Nonspecific toxicity to VB cell line; assay type: cell-based, human; details: 10^-4 molar
# Method: (§5) 7. Analysis of nonspecific toxicity to the target cells with Compounds A and B. The VB, H9 and HXB cell lines were exposed to different concentrations of Compounds A and B as were normal human macrophages for the length of time the drug was in contact with each cell line as described in the above assays. Cell numbers were counted, and live versus dead were determined by Trypan blue exclusion assays. These tests were required to determine a therapeutic index between nonspecific toxic effects on the described cells, compared with potential effective antiviral effects in vitro (Example 6).
# as §3
# [6] = tested on: peripheral blood lymphocytes; assay: Nonspecific toxicity to peripheral blood lymphocytes; assay type: cell-based, human
# normal human macrophages = assay: Nonspecific toxicity to normal human macrophages; assay type: cell-based
# Method: as §5
# HXB cell line = assay: Killing of HXB cells; assay type: cell-based, human; details: 10^-4 molar
# Method: as §5
# tumor cell lines = assay: Toxicity to tumor cell lines, Examples 1 to 7; assay type: cell-based, human; details: 10^-4 molar; all experiments of Examples 1 to 7
# Method: as §5
# HIV = assay: Oral dehydroepiandrosterone sulphate in AIDS patients, T4 cell count; assay type: in vivo, human patients; details: patients X and Y, 300 mg once per day then 100 mg, day 5 to day 17
# Method: Dehydroepiandrosterone sulphate was measured into unit doses of 300 mg and 100 mg and each unit dose enclosed in a soft gelatin capsule.
# (A) A patient sero positive for HIV and diagnosed as suffering from AIDS was treated as follows. For twelve consecutive days, the patient was treated by administering the encapsulated compound orally to the patient. For the first eleven days, a unit dose of 300 mg was administered, once per day. On the twelfth day, the patient was given a single unit dose of 100 mg of the compound.
# Blood samples were taken from the patients on five occasions over the twenty-six day period. The first tests were carried out on each patient on day 1 and included measurements of T1, T4 and T8 cell counts, as well as, sedimentation rate. The treatment commenced on day 5, and continued to day 17. From day 5 to day 16, each patient, as already discussed, received a single unit dose of 300 mg of dehydroepiandrosterone sulphate orally and on day 17 100 mg was administered. The aforementioned tests were repeated on each patient on day 9, day 17, day 24 and day 26.
structure (smiles),measurement,setting,value
"C[C@]12CC[C@H](O)C[C@@H]1CC[C@@H]1[C@@H]2CC[C@]2(C)C(=O)[C@H](Br)C[C@@H]12 [B, 16α-bromoepiandrosterone]","inhibition of HIV mediated multinucleated syncytial cell formation, compared with compound A","[1]; VB cells, acute infection, 48 hours, FIG. 1, average of two experiments",more active
same,"antiviral effects in comparison with AZT, T lymphoma cells",[1]; acute infection,inferior
same,antiviral effect in acute infection studies of T lymphoma cells,"[1]; acute infection, conclusions",mild antiviral effect
same,inhibition of cytopathic effect in two subsequent experiments,"[1]; compounds diluted in DMSO, possibly secondary to drug stability problems",less striking effect
same,p24 antigen production,[2]; 10^-4 molar,moderately inhibited
same,p24 antigen production,[2]; 10^-5 molar,slightly less inhibited
same,"antiviral effects in comparison with AZT, lymphocytes",[2]; acute infection,inferior
same,antiviral effect in acute infection studies of lymphocytes,"[2]; acute infection, conclusions",mild antiviral effect
same,decrease in production of HIV p24 antigens (supernatant),"HIV in human macrophages [3]; 10^-4 through 10^-8 molar, 7 days after acute infection, FIG. 3",approximately 50%
same,HIV infection and HIV expression in macrophages,"HIV in human macrophages [3]; in vitro, reproducible, six separate monocyte/macrophage donors",inhibit HIV infection and HIV expression in macrophages
same,HIV p24 cytoplasmic antigen production,HIV in human macrophages [4],substantially inhibited
same,inhibition of HIV production of cytopathic effects in chronically infected lymphoma cell line,HIV in HXB/H9 cell line,no specific inhibition
same,inhibition compared with inhibition of acute infection of macrophages,"[5]; 10^-4 and 10^-5 molar, FIG. 5 vs FIG. 4",somewhat less than the inhibition of acute infection of macrophages
same,inhibition of cytoplasmic HIV p24 antigen production in chronically infected macrophages,"[5]; both 10^-4 and 10^-5 molar, three experiments, FIG. 5",some inhibition
same,toxicity to VB T lymphoma cell line,VB T lymphoma cell line,extremely toxic
same,toxicity with the PBL cultures,[6]; 10^-4 and 10^-5 molar,No appreciable toxicity
same,"extreme toxicity seen in VB cells, in normal peripheral blood lymphocytes",[6]; 10^-4 molar,not shared by either the normal peripheral blood lymphocytes or macrophages
same,toxicity to peripheral blood lymphocytes,[6]; 10^-4 to 10^-8 molar,nor was there appreciable toxicity
same,"extreme toxicity seen in VB cells, in macrophages",normal human macrophages; 10^-4 molar,not shared by either the normal peripheral blood lymphocytes or macrophages
same,toxicity in normal macrophages,normal human macrophages; 10^-4 to 10^-8 molar,not appreciable toxicity
same,killing of HXB cells,HXB cell line,killing
same,toxicity to tumor cell lines,tumor cell lines,appreciable toxicity
C[C@]12CC[C@H](OS(=O)(=O)O)CC1=CC[C@@H]1[C@@H]2CC[C@]2(C)C(=O)CC[C@@H]12 [dehydroepiandrosterone sulphate],T4 cell count,HIV,stabilise
